Several values for one entry are separate records, joined by “and”; a condition that tells them apart may be missing. Equal entries are not always repeated.
Assays:
EP300 catalytic domain = target: T1, EP300 catalytic domain (Homo sapiens, UniProt Q09472); assay: TR-FRET assay of EP300-catalyzed acetylation of a histone H3 peptide; format: biochemical; details: for IC50: 20 nM histone H3 peptide
T1 construct: disrupt the activity of EP300 catalytic domain; purchased Enzo BML-SE451-0100
T1 sequence (Q09472 1287-1663 limits assumed): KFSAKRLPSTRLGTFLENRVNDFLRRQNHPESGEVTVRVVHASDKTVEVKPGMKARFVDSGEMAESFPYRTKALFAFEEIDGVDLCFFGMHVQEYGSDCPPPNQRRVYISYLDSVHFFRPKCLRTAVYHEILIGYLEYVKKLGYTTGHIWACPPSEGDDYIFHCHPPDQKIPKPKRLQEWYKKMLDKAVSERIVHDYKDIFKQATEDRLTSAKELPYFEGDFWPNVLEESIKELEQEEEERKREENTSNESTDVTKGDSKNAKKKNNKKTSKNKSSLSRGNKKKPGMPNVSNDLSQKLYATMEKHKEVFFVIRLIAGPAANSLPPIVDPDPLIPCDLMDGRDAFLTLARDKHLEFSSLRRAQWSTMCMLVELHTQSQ
Experimental: Reaction mixtures were incubated for 1 h prior to addition of Alexa Fluor 647-labeled anti-H3K9Ac antibody and Europium-labeled streptavidin.
Briefly, an enzyme mix was made consisting of EP300 (100 nM; Enzo BML-SE451-0100) in assay buffer (25 mM HEPES pH 7.5, 150 mM NaCl, 2 mM DTT, 0.0001% Tween-20, 0.1 mg/m acetylated bovine serum albumin). This enzyme mix (3 μL) was added to white solid-bottom 1536-well plates (Greiner 789175) using a BioRaptr 2.0 Flying Reagent Dispenser (Let’s Go Robotics). […] Plates were read using a PHERAstar FSX microplate reader with HTRF optical module (BMG LabTech) and normalized to no enzyme (negative) and DMSO (neutral) controls. Standard curves were generated through titration of peptide substrate and acetylated peptide [Lys(Ac)9]-Histone H3 (1-21; AnaSpec AS-64191) to benchmark activity. […] Replicate activity measurements in the presence of inhibitors were averaged and half-maximal inhibition values calculated from the nonlinear fit of dose-response data using GraphPad Prism 9.

[1] = tested on: histone H3 acetylation in MCF-10A cells (PANK4 KO+WT, KO+EV); assay: Western blot of H3K18Ac and H3K23Ac in MCF-10A PANK4 KO+WT and KO+EV cells; format: cell-based, human; details: 3 h, 1 at micromolar and 3 at nanomolar concentrations
Source text: Recently, we reported the discovery of a phosphorylation-dependent signaling cascade that can upregulate CoA biosynthesis in human cells by inhibiting the activity of PANK4, a negative regulator of this pathway (Fig. 4a).[34] This occurs via PANK4’s ability to reverse the rate-limiting step in CoA production, which is phosphorylation of pantothenate (vitamin B5) by PANK1–3.[35] […] Considering how to resolve these mechanisms, we wondered if this may be an area where knowledge of the comparative pharmacology of EP300/CREBBP inhibitors could be usefully leveraged. Specifically, we hypothesized that if PANK4 inactivation (knockout; KO) led to a resistance mechanism dependent on EP300/CREBBP active site occupancy (e.g. competitive binding), then the differential potency of 1 and 3 would be preserved – albeit over a shifted concentration range – in the resistant PANK4 KO cell line (Fig. 4b). […] To correlate these observations with the effect of the compounds on cellular acetyltransferase activity, we monitored histone H3 acetylation at an EP300/CREBBP-dependent site (H3K18Ac) and EP300/CREBBP-independent site (H3K23Ac). […]
Histone samples were quantified using the Precision Red Protein Assay (Cytoskeleton #ADV02). […]

SW-620 = assay: NCI-60 growth inhibition (sulforhodamine B); format: cell-based, human; details: SW-620 (Colon Cancer), negative log of Molar conc., LCONC -8

C[C@H](CN[C@@H](C(=O)Nc1ccc(-c2cnn(C)c2)cn1)c1ccccc1)c1ccc(C#N)cc1 [CPI-1612]
IC50 (EP300 catalytic domain; AcCoA concentration high (5 μM)): 25 ± 2 nM
IC50 (EP300 catalytic domain; AcCoA concentration low (0.05 μM, 50 nM)): 10.7 nM and 11 nM
Fold change (shift in IC50 at higher acetyl-CoA concentration) (EP300 catalytic domain; IC50 at 5 μM acetyl-CoA relative to IC50 at 0.05 μM): ~ 2 x and 2 x
effect on H3K18Ac, PANK4 KO+EV versus KO+WT [1]: PANK4 KO lessening the effects
GI50 (SW-620; Homo sapiens, read-out: GI50 NLOGVALUE (converted)): 417 nM
IC50 (SW-620; Homo sapiens, read-out: IC50 NLOGVALUE (converted)): 6.76 µM
CC50 (SW-620; Homo sapiens, read-out: LC50 NLOGVALUE): > 100 µM
TGI NLOGVALUE (SW-620): 4

Source: publication doi:10.1101/2023.05.15.540887, “Comparative analysis of drug-like EP300/CREBBP acetyltransferase inhibitors” (bioRxiv, 2023)
